The record followed here is US11266147B2, “Fungicidal oxadiazoles” (Bayer Aktiengesellschaft, priority 2017, dated 2022).

A short description of this data set: LogP by HPLC on reversed phase columns (EEC directive 79/831 Annex V.A8). Format: physicochemical. The note with it: method [a]: LC-UV, acidic range, 0.1% formic acid in water and acetonitrile, linear gradient 10% to 95% acetonitrile. The procedure: [table] If more than one LogP value is available within the same method, all the values are given and separated by “+”. Calibration was done with straight-chain alkan2-ones (with 3 to 16 carbon atoms) with known LogP values (measurement of LogP values using retention times with linear interpolation between successive alkanones). Lambda-max-values were determined using UV-spectra from 200 nm to 400 nm and the peak values of the chromatographic signals.

Molecules are shown by their SMILES.

As to `FC(F)(Cl)c1nc(-c2cnc(Nc3ccccc3Cl)nc2)no1` [Compound I-77], the LogP was 4.46^[a].

With `FC(F)Oc1ccc(Nc2ncc(-c3noc(C(F)(F)Cl)n3)cn2)cc1` [Compound I-69], the LogP was 4.11^[a].

Regarding `Fc1ccc(Nc2ncc(-c3noc(C(F)(F)Cl)n3)cn2)cc1` [Compound I-72], the LogP was 3.99^[a].

`FC(F)(F)c1cccc(Nc2ncc(-c3noc(C(F)(F)Cl)n3)cn2)c1` [Compound I-85]: the LogP is 4.69^[a].

With `FC(F)(Cl)c1nc(-c2cnc(NC3CCCC3)nc2)no1` [Compound I-28], the LogP is 4.08^[a].

In the case of `FC(F)(Cl)c1nc(-c2cnc(NC3Cc4ccccc4C3)nc2)no1` [Compound I-19], the LogP is 4.49^[a].

With `FC(F)(F)c1nc(-c2cnc(NC3CC3C(F)(F)F)nc2)no1` (centres unmarked) [Compound I-21], the LogP is 3.46^[a].

What is called chromatographic logP is a lipophilicity value derived from retention on a column. Low readings indicate a more hydrophilic compound, high ones a more lipophilic compound. In turn, `CC(=O)N(c1ncc(-c2noc(C(F)(F)F)n2)cn1)c1ccccc1F` [Compound I-07, N-(2-fluorophenyl)-N-{5-[5-(trifluoromethyl)-1,2,4-oxadiazol-3-yl]pyrimidin-2-yl}acetamide] yielded a chromatographic logP (reversed phase HPLC column) of 3.23.

On to `FC(F)(Cl)c1nc(-c2cnc(Nc3ccc(Cl)cc3)nc2)no1` [Compound I-67], for which the LogP was 4.56^[a].

`FC(F)(Cl)c1nc(-c2cnc(Nc3ccon3)nc2)no1` [Compound I-64]: the LogP is 2.71^[a].

As for `N#CCc1ccc(Nc2ncc(-c3noc(C(F)(F)Cl)n3)cn2)cc1` [Compound I-84], the LogP is 3.46^[a].

Take `FC(F)(Cl)c1nc(-c2cnc(NC3CC3)nc2)no1` [Compound I-27]: the LogP was 2.76^[a].

With `O=S1(=O)CCC(Nc2ncc(-c3noc(C(F)(F)Cl)n3)cn2)C1` (centres unmarked) [Compound I-30], the LogP is 2.32^[a].

Take `CC1(Nc2ncc(-c3noc(C(F)(F)F)n3)cn2)CC1` [Compound I-25]: the LogP was 3.04^[a].

As for `Cc1cccc(Nc2ncc(-c3noc(C(F)(F)F)n3)cn2)c1` [Compound I-56], the LogP was 4.13^[a].

`FC(F)(Cl)c1nc(-c2cnc(Nc3ccsc3)nc2)no1` [Compound I-65]: the LogP was 3.92^[a].

As for `FC(F)(F)c1nc(-c2cnc(NC3(c4ccccc4)CC3)nc2)no1` [Compound I-17], the LogP was 3.74^[a].

Take `CC(=O)N1CCC(Nc2ncc(-c3noc(C(F)(F)F)n3)cn2)CC1` [Compound I-13]: the LogP is 2.17^[a].

For `CC(=O)Nc1cccc(Nc2ncc(-c3noc(C(F)(F)Cl)n3)cn2)c1` [Compound I-74], the LogP is 2.75^[a].

Take `FC(F)(Cl)c1nc(-c2cnc(Nc3cccc4c3CCC4)nc2)no1` [Compound I-73]: the LogP was 4.69^[a].

Consider `FC(F)(F)c1nc(-c2cnc(NC3CCOCC3)nc2)no1` [Compound I-16], for which the LogP is 2.57^[a].

In the case of `FC(F)(F)c1nc(-c2cnc(NC3CC3)nc2)no1` [Compound I-31], the LogP was 2.57^[a].

With `O=S1(=O)CCC(Nc2ncc(-c3noc(C(F)(F)F)n3)cn2)C1` (centres unmarked) [Compound I-22], the LogP is 2.15^[a].

As for `FC(F)(Cl)c1nc(-c2cnc(Nc3ccc4c(c3)OCO4)nc2)no1` [Compound I-70], the LogP was 3.72^[a].

As to `COc1ccc(Nc2ncc(-c3noc(C(F)(F)Cl)n3)cn2)cc1` [Compound I-66], the LogP was 3.79^[a].

Take `FC(F)(F)c1nc(-c2cnc(Nc3cccc4c3CCC4)nc2)no1` [Compound I-60]: the LogP was 4.44^[a].

As for `FC(F)(F)c1nc(-c2cnc(Nc3ccc(S(F)(F)(F)(F)F)cc3)nc2)no1` [Compound I-55], the LogP was 4.80^[a].

Consider `FC(F)(F)c1nc(-c2cnc(Nc3nc4c(s3)CCC4)nc2)no1` [Compound I-86], for which the LogP is 3.81^[a].

Turning to `Cc1ccnc(Nc2ccc(-c3noc(C(F)(F)F)n3)cc2)n1` [Compound I-06], the LogP was 3.83^[a].

As to `Fc1ccc(Nc2ncc(-c3noc(C(F)(F)Cl)n3)cn2)c(F)c1` [Compound I-75], the LogP is 3.92^[a].

In the case of `FC1(F)CC(Nc2ncc(-c3noc(C(F)(F)Cl)n3)cn2)C1` [Compound I-18], the LogP was 3.48^[a].

Take `FC(F)(F)c1nc(-c2cnc(Nc3ccc(Cl)cc3)nc2)no1` [Compound I-62]: the LogP was 4.34^[a].

`Cc1cccc(Nc2ncc(-c3noc(C(F)(F)Cl)n3)cn2)c1` [Compound I-68]: the LogP is 4.34^[a].

Take `FC(F)(F)Oc1ccccc1Nc1ccc(-c2noc(C(F)(F)F)n2)cc1` [Compound I-39]: the LogP is 5.11^[a].

`COc1cccc(Nc2ncc(-c3noc(C(F)(F)F)n3)cn2)c1` [Compound I-45]: the LogP is 3.76^[a].

As to `FC(F)(Cl)c1nc(-c2cnc(NC3(c4ccccc4)CC3)nc2)no1` [Compound I-29], the LogP was 3.94^[a].

On to `FC(F)Oc1ccc(Nc2ncc(-c3noc(C(F)(F)F)n3)cn2)cc1` [Compound I-43], for which the LogP is 3.92^[a].

On to `FC(F)(F)c1cccc(Nc2ccc(-c3noc(C(F)(F)F)n3)cc2)c1` [Compound I-36], for which the LogP is 5.08^[a].

For `CC(=O)N1CCC(Nc2ncc(-c3noc(C(F)(F)Cl)n3)cn2)CC1` [Compound I-20], the LogP was 2.32^[a].

In the case of `CC1(Nc2ncc(-c3noc(C(F)(F)Cl)n3)cn2)CC1` [Compound I-14], the LogP was 3.25^[a].

For `N#Cc1cccc(Nc2ncc(-c3noc(C(F)(F)F)n3)cn2)c1` [Compound I-51], the LogP is 3.52^[a].

In the case of `FC(F)(Cl)c1nc(-c2cnc(NC3=NCCS3)nc2)no1` [Compound I-33], the LogP was 1.26^[a].

Turning to `FC(F)(Cl)c1nc(-c2cnc(Nc3nc4c(s3)CCC4)nc2)no1` [Compound I-89], the LogP was 4.03^[a].

Turning to `FC(F)(F)c1nc(-c2cnc(Nc3ccsc3)nc2)no1` [Compound I-58], the LogP was 3.70^[a].

For `COc1cccc(Nc2ncc(-c3noc(C(F)(F)Cl)n3)cn2)c1` [Compound I-80], the LogP is 3.96^[a].

For `FC(F)(Cl)c1nc(-c2cnc(NC3CC3C(F)(F)F)nc2)no1` (centres unmarked) [Compound I-09], the LogP was 3.65^[a].

Turning to `N#Cc1cccc(Nc2ncc(-c3noc(C(F)(F)Cl)n3)cn2)c1` [Compound I-82], the LogP was 3.72^[a].

For `FC(F)(F)c1nc(-c2cnc(NC3=NCCS3)nc2)no1` [Compound I-34], the LogP is 1.08^[a].

Turning to `COc1cc(Nc2ncc(-c3noc(C(F)(F)Cl)n3)cn2)ccc1C` [Compound I-81], the LogP is 4.51^[a].

With `CC(=O)Nc1cccc(Nc2ncc(-c3noc(C(F)(F)F)n3)cn2)c1` [Compound I-50], the LogP is 2.59^[a].

Regarding `Fc1ccc(Nc2ncc(-c3noc(C(F)(F)F)n3)cn2)cc1` [Compound I-63], the LogP is 3.79^[a].

With `FC(F)(Cl)c1nc(-c2cnc(Nc3ccc(S(F)(F)(F)(F)F)cc3)nc2)no1` [Compound I-83], the LogP is 5.00^[a].

For `FC(F)(F)c1nc(-c2cnc(Nc3ccc4ncccc4c3)nc2)no1` [Compound I-87], the LogP is 1.98^[a].

On to `FC(F)(Cl)c1nc(-c2cnc(NC3CCOC3)nc2)no1` (centres unmarked) [Compound I-11], for which the LogP was 2.55^[a].

With `FC(F)(F)c1nc(-c2cnc(NC3(c4ccccn4)CCC3)nc2)no1` [Compound I-23], the LogP is 1.96^[a].

With `FC(F)(F)c1nc(-c2ccc(Nc3ccc(Cl)cc3)cc2)no1` [Compound I-38], the LogP was 5.00^[a].

For the compound `FC(F)(Cl)c1nc(-c2cnc(Nc3ccccc3)nc2)no1` [Compound I-71], the LogP was 3.96^[a].

Turning to `N#CCc1ccc(Nc2ncc(-c3noc(C(F)(F)F)n3)cn2)cc1` [Compound I-48], the LogP is 3.27^[a].

In the case of `FC(F)(F)c1nc(-c2cnc(Nc3ccon3)nc2)no1` [Compound I-57], the LogP was 2.50^[a].

`FC(F)(F)c1nc(-c2cnc(Nc3ccccc3)nc2)no1` [Compound I-61]: the LogP is 3.74^[a].

On to `FC1(F)CC(Nc2ncc(-c3noc(C(F)(F)F)n3)cn2)C1` [Compound I-32], for which the LogP is 3.29^[a].

In the case of `FC(F)(F)c1nc(-c2cnc(Nc3ccc4c(c3)OCO4)nc2)no1` [Compound I-49], the LogP was 3.50^[a].

For `FC(F)(F)c1nc(-c2ccc(Nc3ccccc3)cc2)no1` [Compound I-37], the LogP is 4.56^[a].

Take `Fc1ccccc1Nc1ncc(-c2noc(C(F)(F)Cl)n2)cn1` [Compound I-41]: the LogP was 3.94^[a].

As for `FC(F)(F)c1cccc(Nc2ncc(-c3noc(C(F)(F)F)n3)cn2)c1` [Compound I-53], the LogP was 4.46^[a].

As for `Cc1ccnc(Nc2ccc(-c3noc(C(F)(F)Cl)n3)cc2)n1` [Compound I-40], the LogP is 2.98^[a].

As for `FC(F)(Cl)c1nc(-c2cnc(NC3(c4ccccn4)CCC3)nc2)no1` [Compound I-24], the LogP is 2.13^[a].

Take `COc1ccccc1Nc1ncc(-c2noc(C(F)(F)F)n2)cn1` [Compound I-54]: the LogP was 4.18^[a].

For the compound `Cc1cccc(Nc2ccc(-c3noc(C(F)(F)F)n3)cc2)c1` [Compound I-35], the LogP is 4.93^[a].

`Fc1cccc(Nc2ncc(-c3noc(C(F)(F)F)n3)cn2)c1` [Compound I-44]: the LogP was 3.94^[a].

On to `COc1cc(Nc2ncc(-c3noc(C(F)(F)F)n3)cn2)ccc1C` [Compound I-52], for which the LogP is 4.30^[a].

Regarding `Cn1ccnc1Nc1ncc(-c2noc(C(F)(F)F)n2)cn1` [Compound I-88], the LogP was 1.08^[a].

As to `FC(F)(Cl)c1nc(-c2cnc(Nc3cccc(Cl)c3)nc2)no1` [Compound I-79], the LogP was 4.56^[a].

`COc1ccc(Nc2ncc(-c3noc(C(F)(F)F)n3)cn2)cc1` [Compound I-59]: the LogP was 3.57^[a].
